Reference: patent publication US20250353833A1, “DPP9 BINDING COMPOUNDS” (UNIVERSITEIT ANTWERPEN, priority 2022, published 2025)
Read-outs that look alike come from different tables or passages of the source.

Assays:
Format in all cases: biochemical
FAP = FAP (Homo sapiens (Human), UniProt Q12884); assay: FAP enzyme inhibition, IC50 measurement (Z-Gly-Pro-AMC release); conditions: mean ± SD (n = 3)
DPP2 = DPP2 (Homo sapiens (Human), UniProt Q9UHL4); assay: DPP2 enzyme inhibition, IC50 measurement (Lys-Ala-pNA release); conditions: mean ± SD (n = 3)
Experimental: (§1) IC50 measurements. […] The Magellan software was used to process the data, which was then fitted using a non-linear fit model in GraFit 7. […] As a blank, the assay buffer was used instead of the enzyme. Screening measurements were carried out in duplo and IC50 values were determined in triplo with at least eight different inhibitor concentrations as described by Van Goethem et al.

DPP8 = DPP8 (Homo sapiens (Human), UniProt Q6V1X1); assay: DPP8 enzyme inhibition, IC50 measurement (Ala-Pro-pNA release); conditions: mean ± SD (n = 3), read-out: IC50 DPP8
DPP8, sequence (Q6V1X1 whole entry): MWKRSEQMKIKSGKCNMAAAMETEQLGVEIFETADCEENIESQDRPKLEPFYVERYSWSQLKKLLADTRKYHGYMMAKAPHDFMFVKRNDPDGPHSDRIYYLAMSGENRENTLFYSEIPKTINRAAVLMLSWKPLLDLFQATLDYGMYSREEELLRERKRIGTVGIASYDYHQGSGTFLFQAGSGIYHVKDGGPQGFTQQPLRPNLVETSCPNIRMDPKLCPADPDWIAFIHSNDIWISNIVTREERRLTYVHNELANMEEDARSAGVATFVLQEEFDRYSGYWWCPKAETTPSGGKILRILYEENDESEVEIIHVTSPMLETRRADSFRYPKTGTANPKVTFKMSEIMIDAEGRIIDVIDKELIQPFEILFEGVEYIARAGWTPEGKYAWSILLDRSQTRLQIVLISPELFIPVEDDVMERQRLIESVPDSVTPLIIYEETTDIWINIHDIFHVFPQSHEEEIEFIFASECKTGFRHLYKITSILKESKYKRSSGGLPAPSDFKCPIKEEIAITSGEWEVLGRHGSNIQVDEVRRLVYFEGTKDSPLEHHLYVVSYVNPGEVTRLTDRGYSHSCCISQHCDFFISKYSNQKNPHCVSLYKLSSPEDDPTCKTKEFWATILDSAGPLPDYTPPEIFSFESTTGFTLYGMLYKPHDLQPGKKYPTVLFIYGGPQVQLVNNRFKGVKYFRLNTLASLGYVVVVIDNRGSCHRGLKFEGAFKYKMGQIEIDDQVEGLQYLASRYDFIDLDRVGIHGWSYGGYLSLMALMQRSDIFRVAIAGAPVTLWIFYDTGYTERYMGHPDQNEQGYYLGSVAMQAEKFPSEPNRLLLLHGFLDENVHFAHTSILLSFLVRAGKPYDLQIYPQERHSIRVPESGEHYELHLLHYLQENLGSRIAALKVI
Procedure, shortened: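 Inhibitory potency against human DPP8 was expressed as IC50, measured in triplicate over at least eight inhibitor concentrations. Blank wells held assay buffer in place of enzyme. Raw data were processed with the Magellan software, and IC50 values were obtained by non-linear curve fitting in GraFit 7.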

PREP = PREP (Homo sapiens (Human), UniProt P48147); assay: PREP enzyme inhibition, IC50 measurement (N-succinyl-Gly-Pro-AMC release); conditions: mean ± SD (n = 3)
PREP, sequence (P48147 whole entry): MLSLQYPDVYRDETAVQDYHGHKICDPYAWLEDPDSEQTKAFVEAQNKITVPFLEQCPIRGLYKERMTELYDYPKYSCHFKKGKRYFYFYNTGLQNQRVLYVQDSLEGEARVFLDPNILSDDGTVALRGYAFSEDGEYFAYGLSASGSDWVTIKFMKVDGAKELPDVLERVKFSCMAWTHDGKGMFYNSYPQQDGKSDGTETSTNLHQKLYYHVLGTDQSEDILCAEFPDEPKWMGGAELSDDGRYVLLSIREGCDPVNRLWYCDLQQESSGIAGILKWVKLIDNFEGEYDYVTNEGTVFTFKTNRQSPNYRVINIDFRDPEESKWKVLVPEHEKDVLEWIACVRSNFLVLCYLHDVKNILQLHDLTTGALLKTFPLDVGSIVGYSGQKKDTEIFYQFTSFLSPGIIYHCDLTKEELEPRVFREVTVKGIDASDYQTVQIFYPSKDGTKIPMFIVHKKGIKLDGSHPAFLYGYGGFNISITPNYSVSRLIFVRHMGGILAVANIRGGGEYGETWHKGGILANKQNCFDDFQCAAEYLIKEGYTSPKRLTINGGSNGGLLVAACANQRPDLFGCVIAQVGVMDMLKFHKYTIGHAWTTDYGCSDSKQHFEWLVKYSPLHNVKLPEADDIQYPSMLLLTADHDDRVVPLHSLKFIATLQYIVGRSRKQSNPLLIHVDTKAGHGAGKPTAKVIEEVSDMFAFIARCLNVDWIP
Experimental: as §1

DPP9 = DPP9 (Homo sapiens (Human), UniProt Q86TI2); assay: DPP9 enzyme inhibition, IC50 measurement (Ala-Pro-pNA release); conditions: for IC50: mean ± SD (n = 3), read-out: IC50 DPP9; for SI DPP9/4: selectivity index DPP9/4; for SI DPP9/8: selectivity index, DPP8 IC50 over DPP9 IC50
DPP9, sequence (Q86TI2 whole entry): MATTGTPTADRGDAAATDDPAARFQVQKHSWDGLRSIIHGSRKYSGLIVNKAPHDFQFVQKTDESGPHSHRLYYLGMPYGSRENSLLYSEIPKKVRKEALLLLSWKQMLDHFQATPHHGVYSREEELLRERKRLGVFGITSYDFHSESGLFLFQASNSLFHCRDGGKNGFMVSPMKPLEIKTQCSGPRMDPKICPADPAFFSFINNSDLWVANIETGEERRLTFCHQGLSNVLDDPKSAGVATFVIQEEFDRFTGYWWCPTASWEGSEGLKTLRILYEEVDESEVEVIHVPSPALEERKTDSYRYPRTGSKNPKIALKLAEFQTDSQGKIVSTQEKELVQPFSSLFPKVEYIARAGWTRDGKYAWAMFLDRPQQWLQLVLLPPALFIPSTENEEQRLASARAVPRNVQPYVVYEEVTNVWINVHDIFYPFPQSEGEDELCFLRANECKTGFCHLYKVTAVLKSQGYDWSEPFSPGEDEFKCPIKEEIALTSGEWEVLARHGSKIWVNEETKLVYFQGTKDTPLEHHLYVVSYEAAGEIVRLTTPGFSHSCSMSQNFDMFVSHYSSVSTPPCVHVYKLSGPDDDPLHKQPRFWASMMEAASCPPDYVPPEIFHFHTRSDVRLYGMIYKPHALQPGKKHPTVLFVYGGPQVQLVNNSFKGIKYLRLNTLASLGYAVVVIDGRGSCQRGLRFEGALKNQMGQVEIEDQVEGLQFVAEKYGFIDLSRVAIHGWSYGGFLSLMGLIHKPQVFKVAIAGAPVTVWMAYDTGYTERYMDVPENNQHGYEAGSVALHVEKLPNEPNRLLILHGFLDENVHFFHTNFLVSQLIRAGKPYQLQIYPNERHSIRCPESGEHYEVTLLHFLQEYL
Procedure, shortened: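 DPP9 inhibitory potency was determined as IC50 in triplicate, using at least eight inhibitor concentrations. Blanks contained assay buffer in place of enzyme. Data were processed with Magellan software and fitted to a non-linear model in GraFit 7.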

DPP4 = DPP4 (Homo sapiens (Human), UniProt P27487); assay: DPP4 enzyme inhibition, IC50 measurement (Ala-Pro-pNA release); conditions: for IC50: mean ± SD (n = 3)
DPP4, sequence (P27487 whole entry): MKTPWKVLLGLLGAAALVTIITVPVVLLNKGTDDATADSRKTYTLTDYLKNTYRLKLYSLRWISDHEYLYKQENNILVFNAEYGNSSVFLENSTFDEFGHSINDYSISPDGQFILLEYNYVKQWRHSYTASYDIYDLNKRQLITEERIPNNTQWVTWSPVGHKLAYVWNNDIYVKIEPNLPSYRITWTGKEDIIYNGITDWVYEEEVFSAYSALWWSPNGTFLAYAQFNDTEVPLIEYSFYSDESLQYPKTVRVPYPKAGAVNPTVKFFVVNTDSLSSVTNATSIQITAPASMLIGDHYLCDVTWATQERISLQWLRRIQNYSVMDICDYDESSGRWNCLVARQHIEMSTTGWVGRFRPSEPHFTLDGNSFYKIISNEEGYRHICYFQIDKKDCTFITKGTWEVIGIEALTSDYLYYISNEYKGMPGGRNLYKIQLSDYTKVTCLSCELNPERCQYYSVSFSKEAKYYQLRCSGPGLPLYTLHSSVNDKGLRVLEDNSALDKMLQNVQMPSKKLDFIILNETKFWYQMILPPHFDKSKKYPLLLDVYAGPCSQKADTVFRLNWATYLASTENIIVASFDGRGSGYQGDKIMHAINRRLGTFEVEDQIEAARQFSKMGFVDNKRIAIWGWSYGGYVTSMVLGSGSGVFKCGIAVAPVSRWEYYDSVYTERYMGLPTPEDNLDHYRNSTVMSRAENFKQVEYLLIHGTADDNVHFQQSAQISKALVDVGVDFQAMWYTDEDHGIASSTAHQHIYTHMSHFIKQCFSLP
Experimental: DPP4 was purified from human seminal plasma as described previously.^[3]
as §1

FAP, sequence (Q12884 27-760): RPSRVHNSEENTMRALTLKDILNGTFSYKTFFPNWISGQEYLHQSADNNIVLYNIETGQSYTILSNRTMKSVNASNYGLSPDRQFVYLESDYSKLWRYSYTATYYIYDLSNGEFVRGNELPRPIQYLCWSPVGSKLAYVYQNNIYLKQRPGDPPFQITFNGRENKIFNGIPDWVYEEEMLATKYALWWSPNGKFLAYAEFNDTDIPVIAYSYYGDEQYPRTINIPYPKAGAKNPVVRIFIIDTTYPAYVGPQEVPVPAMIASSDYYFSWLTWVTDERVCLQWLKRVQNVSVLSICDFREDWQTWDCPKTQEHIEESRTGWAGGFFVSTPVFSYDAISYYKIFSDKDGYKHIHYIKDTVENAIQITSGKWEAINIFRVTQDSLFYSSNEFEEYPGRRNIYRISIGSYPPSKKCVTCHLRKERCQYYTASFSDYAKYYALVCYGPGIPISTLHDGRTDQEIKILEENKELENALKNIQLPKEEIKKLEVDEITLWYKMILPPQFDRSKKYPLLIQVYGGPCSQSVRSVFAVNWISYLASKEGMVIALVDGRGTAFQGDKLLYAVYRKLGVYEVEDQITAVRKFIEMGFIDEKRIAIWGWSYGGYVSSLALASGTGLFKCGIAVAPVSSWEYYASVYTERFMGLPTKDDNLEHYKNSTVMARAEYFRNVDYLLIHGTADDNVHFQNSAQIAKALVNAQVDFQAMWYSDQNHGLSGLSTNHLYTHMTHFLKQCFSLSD

| Structure (SMILES) | IC50 (FAP; Table 1) | IC50 (DPP2; Table 1) | IC50 (DPP8; Table 1) | IC50 (PREP; Table 1) | IC50 (DPP9; Table 1) | SI DPP9/4 (DPP9; Table 1) | SI DPP9/8 (DPP9; Table 1) | IC50 (DPP4; Table 1) | DPP9 inhibitory potency (in words) (DPP9) | IC50 (FAP; Table 2) | IC50 (DPP2; Table 2) | IC50 (DPP8; Table 2) | IC50 (PREP; Table 2) | IC50 (DPP9; Table 2) | SI DPP9/4 (DPP9; Table 2) | SI DPP9/8 (DPP9; Table 2) | DPP4 potency decrease (DPP4; 5p compared with vildagliptin/4) | IC50 (DPP4; Table 2) | DPP9/8 selectivity index (DPP9) |
| --- | --- | --- | --- | --- | --- | --- | --- | --- | --- | --- | --- | --- | --- | --- | --- | --- | --- | --- | --- |
| N#C[C@@H]1CCCN1C(=O)CNC12CC3CC(C1)CC(OCc1ccc(F)cc1F)(C3)C2 [Compound 5b, (S)-1-((-3-((2,4-difluorobenzyl)oxy)adamantan-1-yl)glycyl)pyrrolidine-2-carbonitrile] | > 10000 nM | > 5000 nM | 540 ± 100 nM | 2200 ± 200 nM | 52 ± 8 nM | 0.1 | 10 | 5 ± 1 nM | – | – | – | – | – | – | – | – | – | – | – |
| CCCCOC12CC3CC(CC(NCC(=O)N4CCC[C@H]4C#N)(C3)C1)C2 [Compound 5c, (2S)-1-((-3-butoxyadamantan-1-yl)glycyl)pyrrolidine-2-carbonitrile] | > 10000 nM | > 5000 nM | 1250 ± 100 nM | > 10000 nM | 150 ± 10 nM | 0.07 | 8.5 | 12 ± 2 nM | – | – | – | – | – | – | – | – | – | – | – |
| N#C[C@@H]1C[C@H](N=[N+]=[N-])CN1C(=O)CNC12CC3CC(CC(O)(C3)C1)C2 [Compound 5d, (2S,4S)-4-azido-1-((-3-hydroxyadamantan-1-yl)glycyl)pyrrolidine-2-carbonitrile] | > 10000 nM | > 5000 nM | 150 ± 20 nM | > 10000 nM | 16 ± 1 nM | 2 | 9.4 | 32 ± 3 nM | – | – | – | – | – | – | – | – | – | – | – |
| N#C[C@@H]1C[C@H](N=[N+]=[N-])CN1C(=O)CNC12CC3CC(C1)CC(OCc1ccccc1)(C3)C2 [Compound 5e, (2S,4S)-4-azido-1-((3-(benzyloxy)adamantan-1-yl)glycyl)pyrrolidine-2-carbonitrile] | > 10000 nM | > 5000 nM | 60 ± 4 nM | > 10000 nM | 10 ± 1 nM | 1.7 | 6.0 | 17 ± 3 nM | – | – | – | – | – | – | – | – | – | – | – |
| N#C[C@@H]1C[C@H](N=[N+]=[N-])CN1C(=O)CNC12CC3CC(C1)CC(OCc1ccc(F)cc1F)(C3)C2 [Compound 5f, (2S,4S)-4-azido-1-((3-((2,4-difluorobenzyl)oxy)adamantan-1-yl)glycyl)pyrrolidine-2-carbonitrile] | > 10000 nM | > 5000 nM | 41 ± 7 nM | > 10000 nM | 6 ± 1 nM | 3.3 | 6.8 | 24 ± 3 nM | most potent DPP9 inhibitor | – | – | – | – | – | – | – | – | – | – |
| C=C1C[C@@H](C#N)N(C(=O)CNC23CC4CC(CC(O)(C4)C2)C3)C1 [Compound 5h, (2S)-1-((3-hydroxyadamantan-1-yl)glycyl)-4-methylenepyrrolidine-2-carbonitrile] | > 10000 nM | > 5000 nM | 1000 ± 200 nM | > 10000 nM | 260 ± 30 nM | 0.9 | 3.9 | 230 ± 70 nM | – | – | – | – | – | – | – | – | – | – | – |
| C=C1C[C@@H](C#N)N(C(=O)CNC23CC4CC(C2)CC(OCc2ccccc2)(C4)C3)C1 [Compound 5i, (S)-1-((3-(benzyloxy)adamantan-1-yl)glycyl)-4-methylenepyrrolidine-2-carbonitrile] | > 10000 nM | 1270 ± 200 nM | 340 ± 6 nM | 8920 ± 1000 nM | 120 ± 30 nM | 2.3 | 2.9 | 280 ± 10 nM | – | – | – | – | – | – | – | – | – | – | – |
| C=C1C[C@@H](C#N)N(C(=O)CNC23CC4CC(C2)CC(OCc2ccc(F)cc2F)(C4)C3)C1 [Compound 5j, (2S)-1-((3-((2,4-difluorobenzyl)oxy)adamantan-1-yl)glycyl)-4-methylenepyrrolidine-2-carbonitrile] | > 10000 nM | 1100 ± 80 nM | 370 ± 70 nM | > 10000 nM | 130 ± 20 nM | 3.1 | 2.8 | 410 ± 100 nM | – | – | – | – | – | – | – | – | – | – | – |
| C=C1C[C@@H](C#N)N(C(=O)CNC23CC4CC(C2)CC(OCCCC)(C4)C3)C1 [Compound 5k, (S)-1-((-3-butoxyadamantan-1-yl)glycyl)-4-methylenepyrrolidine-2-carbonitrile] | > 10000 nM | 1200 ± 400 nM | 530 ± 10 nM | 2200 ± 200 nM | 210 ± 50 nM | 1.5 | 2.5 | 320 ± 10 nM | – | – | – | – | – | – | – | – | – | – | – |
| N#C[C@@H]1[C@@H]2C[C@@H]2CN1C(=O)CNC12CC3CC(C1)CC(OCc1ccccc1)(C3)C2 [Compound 5m, (1R,2S,5S)-3-((-3-(benzyloxy)adamantan-1-yl)glycyl)-3-azabicyclo[3.1.0]hexane-2-carbonitrile] | > 10000 nM | > 5000 nM | 5900 ± 400 nM | > 10000 nM | 670 ± 200 nM | 0.15 | 8.7 | 100 ± 40 nM | – | – | – | – | – | – | – | – | – | – | – |
| N#C[C@@H]1[C@@H]2C[C@@H]2CN1C(=O)CNC12CC3CC(C1)CC(OCc1ccc(F)cc1F)(C3)C2 [Compound 5n, (1R,2S,5S)-3-((3-((2,4-difluorobenzyl)oxy)adamantan-1-yl)glycyl)-3-azabicyclo[3.1.0]hexane-2-carbonitrile] | > 10000 nM | > 5000 nM | 2000 ± 2000 nM | > 10000 nM | 620 ± 10 nM | 0.3 | 3.4 | 200 ± 10 nM | – | – | – | – | – | – | – | – | – | – | – |
| O=C(CNC12CC3CC(CC(O)(C3)C1)C2)N1Cc2ccccc2C1 [Compound 5p, 2-((-3-hydroxyadamantan-1-yl)amino)-1-(isoindolin-2-yl)ethan-1-one] | – | – | – | – | – | – | – | – | – | > 10000 nM | > 5000 nM | 17700 ± 800 nM | > 10000 nM | 4100 ± 700 nM | >2.4 | 4.3 | at least 100 fold | > 10000 nM | – |
| O=C(CNC12CC3CC(C1)CC(OCc1ccccc1)(C3)C2)N1Cc2ccccc2C1 [Compound 5q, 2-((3-(benzyloxy)adamantan-1-yl)amino)-1-(isoindolin-2-yl)ethan-1-one] | – | – | – | – | – | – | – | – | – | > 10000 nM | > 5000 nM | 6900 ± 2000 nM | > 10000 nM | 1200 ± 200 nM | >8.5 | 5.8 | – | > 10000 nM | – |
| O=C(CNC12CC3CC(C1)CC(OCc1ccc(F)cc1F)(C3)C2)N1Cc2ccccc2C1 [Compound 5r, 2-((-3-((2,4-difluorobenzyl)oxy)adamantan-1-yl)amino)-1-(isoindolin-2-yl)ethan-1-one] | – | – | – | – | – | – | – | – | – | > 10000 nM | > 5000 nM | 1540 ± 90 nM | > 10000 nM | 380 ± 70 nM | >26.4 | 4.1 | – | > 10000 nM | 4.1 |
| CCCCOC12CC3CC(CC(NCC(=O)N4Cc5ccccc5C4)(C3)C1)C2 [Compound 5s, 2-((-3-butoxyadamantan-1-yl)amino)-1-(isoindolin-2-yl)ethan-1-one] | – | – | – | – | – | – | – | – | – | > 10000 nM | > 5000 nM | 3100 ± 100 nM | > 10000 nM | 490 ± 40 nM | >20.4 | 6.4 | – | > 10000 nM | – |
